Consider 3 molecules from patent US20210113602A1, “USE OF 6-THIO-2'-DEOXYGUANOSINE (6-THIO-dG) TO TREAT MELANOMA” (The Board of Regents of the University of Texas System, priority 2018, published 2021).

Data set [1] deals with NRAS mutant melanoma spheroids. In words: 3D collagen-embedded melanoma spheroids, live/dead staining. It counts as cell-based, human. The settings on record: 6-thio-dG (5 μM) and Ganetespib (5 μM); day 7. The method, then: (FIG. 6a) Collagen-embedded melanoma spheroids were treated with DMSO, 6-thio-dG (5 μM) and Gam (5 μM) as in FIGS. 4a-c. On day 7, spheroids were stained with Calcein AM (live cells;
green) and EtBr (dead cells; red) and imaged using an inverted microscope (4×; scale bar=250 μm). Representative merged images from three independent experiments are shown. (FIGS. 6b-d) NRAS mutant M93-047 tumor bearing mice were treated with vehicle control, 6-thio-dG (2.5 mg/kg; ip qd), Gam (12.5 mg/kg; ip qod), or the combination of the two drugs for the indicated days (n=7 mice/group). (FIG. 6b) Average tumor volume over time±SEM is represented. (FIG. 6c) Average tumor weight±SEM after 14 days of treatment. P values were calculated using unpaired Student's t-test. * p<0.05, **p<0.01, ***p<0.005, when comparing vehicle control vs. combination treatment groups. […] Kaplan Meier survival curves of mice treated for 14 days. p-values were calculated by Mantel-Cox logrank test; * p<0.05, **p<0.01, ***p<0.005. (FIG. 6e) Animal weight (grams) before treatment (start of TX) and at the end of the study (End of TX) was assessed and recorded for every mouse enrolled in the study. […] Statistical significance was assessed by unpaired Student's t-test.
Supplementary FIGS. 10a-b. […] Percent cell death was determined by flow cytometry following staining of cells with Annexin V and Propidium iodide. […]

Data set [2] concerns NRAS mutant melanoma cells. In words: Telomere dysfunction-induced foci (TIF) assay. It counts as cell-based, human. The following applies: WM3000 transduced with TERT shRNA; NAC 1 mM for 7 days. On the procedure:
Supplementary FIGS. 6a-b. […] NRAS mutant melanoma cells WM3000 were transduced with TERT shRNA and treated with NAC […] for 7 days. (Supplementary FIG. 6a) TIFs were assessed by indirect immunofluorescence combined with fluorescence in situ hybridization (FISH). Representative images are shown (scale bar=10 μm). (Supplementary FIG. 6b) Quantification of TIF positive cells. Cells were scored as TIF positive when three or more y-H2AS foci (green) were co-localizing with telomere foci (red). Data represent average of thirteen fields imaged +/−SD.
Supplementary FIGS. 8a-d. NRAS mutant melanoma cells are sensitive to the telomere uncapping agent 6-thio-dG. NRAS^mut melanoma cells were treated with 6-thio-dG for 6, 12 or 18 days. (Supplementary FIG. 8a) Relative cell number was assessed by Cyrstal Violet assay and calculated relative to DMSO-treated cells. […] (Supplementary FIG. 8c) NRAS^mut cells were treated with 6-thio-dG for 7 days and telomere-induced foci (TIF) were determined by indirect immunofluorescence combined with fluorescence in situ hybridization (FISH). […] (Supplementary FIG. 8d) Quantification of TIF assay. Cells were scored as TIF-positive when four or more γ-H2AX foci (green) were co-localizing with telomere foci (red). […] P values were calculated by unpaired Student's t-test.
DNA damage and telomere dysfunction assay (TIF). […] Mean fluorescence staining was quantified by flow cytometry. […]

Data set [3] has as its system NRAS mutant melanoma cells. In words: Cell death by flow cytometry (PSVue or Annexin V/PI). Type of data set: cell-based. The settings on record: TERT shRNA 7 dpi; 5 μM Gamitrinib for 48 h.
Experimental: (FIG. 2d) NRASmut melanoma cells and non-transformed human fibroblasts were treated with 1 or 5 μM 6-thio-dG for 7 or 14 days. Cell death was assessed by PSVUe staining. Percent of apoptotic cells is shown. […] (FIGS. 2f-g) Cells were treated with 1 μM 6-thio-dG for 7 days. […] Data represent average from three independent experiments±SEM. *p<0.05; **p<0.01; ***p<0.005 in unpaired Student's t-test.
(FIG. 3f) SOD2 was silenced using shRNA. Transduced M93-047 cells were treated with DMSO or 1 μM of 6-thio-dG and cell death was assessed by Annexin V/PI straining. (FIG. 3g) M93-047 cells were transduced with a SOD2 lentiviral construct or empty vector control (pLX304). Transduced cells were treated with increasing doses (1, 2.5 and 5 μM) of 6-thio-dG for 7 days and cell death was assessed. Data represent average from three independent experiments±SEM. *p<0.05; **p<0.01; ***p<0.005 in unpaired Student's t-test.
(FIG. 4a) NRASmut melanoma cells transduced with TERT shRNA were treated 7 days post infection with 5 μM Gamitrinib (Gam) for 48 h. Cell death was assessed by Annexin V and PI staining. (FIG. 4b) NRASmut melanoma cells and non-transformed fibroblasts were treated with 1 μM 6-thio-dG for 5 days. At day 5, culture medium was replaced and cells treated with 1 μM 6-thio-dG plus 5 μM Gam for two more days. Cells were stained with Annexin V and PI and percent cell death was determined by flow cytometry. […] Data represent average of three independent experiments ±SEM. P values were calculated using unpaired Student's t-test; * p<0.05; ***p<0.005.
(Supplementary FIG. 10a) NRASmut melanoma cells were treated with 6-thio-dG (1 μ) for 7 days total. At day 5, culture medium was replaced and cells were treated with 1 μM 6-thio-dG plus 1 mM Phenformin for two more days. Percent cell death was determined by flow cytometry following staining of cells with Annexin V and Propidium iodide. Data represent average of three independent experiments +/−SEM. *p<0.05 in unpaired Student's t-test.
Another data set deals with NRAS mutant cells. The settings on record: cited from earlier work.
The next data set has as its system BRAF-mutant melanoma. The following applies: cited from earlier work.
The test system of the next data set is SOD2. The settings on record: cited from earlier work.
The test system of another data set is KRAS mutant HCT116 cells. Put plainly: Cell death, Annexin V/PI. It counts as cell-based, human. The following applies: 1 μM 6-thio-dG, 5 μM Gam.
Data set [4] deals with NRAS-WT/BRAF-mut melanoma cells. Put plainly: Cell death, Annexin V/PI. It counts as cell-based, human.
Data set [5] concerns NRAS-WT/BRAF-WT melanoma cells. In words: Cell death, Annexin V/PI. Type of data set: cell-based, human. The settings on record: single agents or combination; 1 μM 6-thio-dG, 5 μM Gam.
The next data set concerns KRAS mutant A549 cells. In words: Cell death, Annexin V/PI. The settings on record: 1 μM 6-thio-dG, 5 μM Gam. Type of data set: cell-based, human.
The next data set concerns NRAS mutant SKNAS cells. Put plainly: Cell death, Annexin V/PI. It counts as cell-based, human. The following applies: single agents or combination; 1 μM 6-thio-dG, 5 μM Gam.

Entries after “also recorded” stand apart in the source; their conditions may differ.

Consider `CC(C)c1cc(-c2n[nH]c(=O)n2-c2ccc3c(ccn3C)c2)c(O)cc1O` [ganetespib], for which the “enhancement of 6-thio-dG efficacy in spheroids” value in [1] is reported as “did not substantially enhance the efficacy”.
Take `CC(=O)N[C@@H](CS)C(=O)O` [NAC, N-acetyl-L-cysteine]: the “number of TIF in TERT depleted cells” value in data set [2] is given as “attenuates TIFs; also recorded: attenuated the number of TIF”.
Regarding Gamitrinib [reference compound], in data set [3], the “cytotoxic effects in TERT depleted cells” value was “enhanced the cytotoxic effects”. Further, the “anti-cancer activity as a single agent” value in the data set on NRAS mutant cells is recorded as “limited activity”. Further, the anti-cancer efficacy result with BRAF-mutant melanoma was “efficacy”. For the same molecule, in the data set on SOD2, the SOD2 levels result is listed as “downregulate SOD2 levels”. In addition, the cell death entry in the data set on KRAS mutant HCT116 cells was “did not induce substantial death”; in data set [4] (Gamitrinib alone, 5 μM), 75-80%; in data set [5], “did not induce cell death”; in the data set with KRAS mutant A549 cells it was “did not induce substantial death”; in the data set with NRAS mutant SKNAS cells, “triggered significant death”. For the same molecule, in data set [4] (1 μM 6-thio-dG, 5 μM Gam), the “cell death (in words)” value is on record as “highly sensitive”.
